Read-outs that look alike come from different tables or passages of the source.
What was measured:
Type in all cases: cell-based
XF498 = assay: SRB cytotoxicity (anti-tumor activity) in vitro, XF498; conditions: Homo sapiens, XF498 central nerve system tumor, 48 hours, read-out: ED50 (the source's name)
Text: (§1) Anti-Tumor (Cyto-Toxicity) Effect in vitro of the Compound According to the Present Invention
(§2) The method for detecting cyto-toxicity employed in the present experiment is Sulforhodamin B Bioassay (SRB) method, which was developed by National Cancer Institute (NCI) in the United States in 1989, for the purpose of measuring anti-tumor activity in vitro.
(§3) The tumor cells used in the experiments via SRB method are listed below:
XF498: central nerve system tumor
(§4) The tumor cells listed above are all human tumor cell-lines, which were distributed from NCI in the United States and subcultured in Korea Chemical Institute. As a culture medium, RPMI 1640 culture medium supplemented with 5% FBS (fetal bovine serum) was used. Cultivation was performed in an 5% CO2 incubator with constant temperature (37° C.) and humidity. The subculture was carried out every three or four days, and a solution of 0.25% tyrosine and 3 mM trans-1,2-diaminocyclohexane-n,n,n,n-tetracetic acid (CDTA) dissolved in PBS (phosphate buffered saline) was used in order to release cells from the surface of the container.
(§5) The test compound synthesized according to the present invention was diluted to have a concentration of 30.0 μg/ml, 10.0 μg/ml, 3.0 μg/ml, 1.0 μg/ml, 0.3 μg/ml and 0.1 μg/ml, respectively, and the cyto-toxicity (anti-tumor activity) of the compound was measured. The maximum concentration of the sample was not more than 30.0 μg/ml. In order to prepare the samples for detection, DMSO (dimethylsulfoxide) was used, if necessary. The concentration of DMSO added was not more than 0.5%. Before added to the tumor cells, the sample solution, which was diluted via several steps, is filtered through a Millipore filter. In a sterile condition, the sample for detecting cyto-toxicity was prepared by means of SRB method using human tumor cell-lines such as A549, SK-OV-3, SK-MEL-2, XF498 and HCT15.
(§6) The subcultured tumor cells were released from the surface of instrument by using tyrosine-CDTA solution, and then charged on a 96-well flat bottom microplate to make the cell number 5×10^3 (A549, HCT15), 1×10^4 (SK-MEL-2, XF498) and 2×10^4 (SK-OV-3) for each cell. The tumor cells are attached on the bottom by cultivating in a CO2 incubator. After removing the culture medium by using an aspirator, the medium is eliminated by using log dose of six concentrations. To each well, 100 μl of 10% TCA (trichloroacetic acid) is added, and the plate was left for 1 hour at 4° C. to fix the cells on the bottom surface of the plate.
(§7) Then, the plate was washed with distilled water 5-6 times to completely remove the residual TCA solution, and dried up at room temperature. To each well of the completely dried plate, 100 μl of dye solution, in which 0.4% SRB solution was dissolved, was added to dye the cells for 30 minutes, and the cells were washed with 1% acetic acid to remove excess SRB which was not combined with the cells. The dyed cell plates were dried at room temperature, and 100 μl of 10 mM trisma base solution was added to each well. The solution was mixed by a titer plate shaker for 10 minutes to elute the dye solution. Then, the absorbance at 520 nm was measured by using a microplate reader.
(§8) In order to calculate the cyto-toxicity (anti-tumor activity) of the samples on tumor cells, the number of tumor cells at the point of adding the sample (Tz, zero time), the number of cells when only an excess amount of culture medium was added instead of the sample and cultured for 48 hours (C, control), and the number of cells when each concentration of the sample was added and cultured for 48 hours (T, test) were measured respectively. The cyto-toxicity was determined according to the following formulas:
(§9) When Tz>T: [(T-Tz)/(C-Tz)]×100
(§10) When Tz<T: [(T-Tz)/Tz]×100
(§11) From the calculated values thus obtained, ED50 (50% effective dose) [the concentration when the sample inhibits 50% of the growth of the tumor cells] was determined by the use of data regression tool of LOTUS program. […]

A549 = assay: SRB cytotoxicity (anti-tumor activity) in vitro, A549; conditions: Homo sapiens
Text: as §1, §2, §3
A549: non small cell lungcarcinoma
as §4, §5, §6, §7, §8, §9, §10, §11

HCT15 = assay: SRB cytotoxicity (anti-tumor activity) in vitro, HCT15; conditions: Homo sapiens, HCT-15, HCT15 colon adenocarcinoma, 48 hours, read-out: ED50 (the source's name)
Text: as §1, §2, §3
HCT15: colon adenocarcinoma
as §4, §5, §6, §7, §8, §9, §10, §11

SK-OV-3 = assay: SRB cytotoxicity (anti-tumor activity) in vitro, SK-OV-3; conditions: Homo sapiens, SK-OV-3 ovary adenocarcinoma, 48 hours, read-out: ED50 (the source's name)
Text: as §1, §2, §3
SK-OV-3: adenocarcinoma, ovary malignant ascites
as §4, §5, §6, §7, §8, §9, §10, §11

SK-MEL-2 = assay: SRB cytotoxicity (anti-tumor activity) in vitro, SK-MEL-2; conditions: Homo sapiens, SK-MEL-2 malignant melanoma, 48 hours, read-out: ED50 (the source's name)
Text: as §1, §2, §3
SK-MEL-2: malignant melanoma, metastasis to skin of thigh
as §4, §5, §6, §7, §8, §9, §10, §11

[1] = A549 non small cell lung carcinoma, SRB, 48 hours, read-out: ED50 (the source's name)

| SMILES | IC50 (XF498) [µM] | IC50 (A549; [1]) [µM] | IC50 (HCT15) [µM] | IC50 (SK-OV-3) [µM] | IC50 (SK-MEL-2) [µM] | IC50 (A549; A549, 48 h, read-out: ED50) [µM] |
| --- | --- | --- | --- | --- | --- | --- |
| CC(=O)Oc1cc(C)ccc1C(O)(CO)COC(=O)Cc1ccc([N+](=O)[O-])cc1 (stereo not shown) [Compound 15-2, 10-(4-Nitrophenylacetoxy)-8,9-dihydroxythymol acetate] | 45.1 | > 100 | 20.2 | 25.8 | 12.8 | – |
| CC(=O)Oc1ccc(C2(COC(=O)Cc3ccc(F)cc3)CO2)c(OC(C)=O)c1 (stereo not shown) [Compound 27-3, 2-(2',4'-Diacetoxyphenyl)-3-(4-fluorophenylacetoxy)-1,2-epoxypropane] | 11 | 36.7 | 4.5 | 3.9 | 9.3 | – |
| CC(=O)OCC1(c2ccc(OC(C)=O)cc2OC(C)=O)CO1 (stereo not shown) [Compound 27-5, 2-(2',4'-Diacetoxyphenyl)-3-acetoxy-1,2-epoxypropane] | 5 | 18.6 | 1.4 | 2.9 | 4.8 | – |
| C=C(CO)c1ccc(C)cc1OCc1ccc(C)cc1 [Compound 35-2, 2-(2-(4'-Methylbenzyloxy)-4-methylphenyl)-prop-2-ene-1-ol] | 7.2 | 10.9 | 9.1 | 9.6 | 8.8 | – |
| CC(=O)Oc1ccc(C2(COC(=O)Cc3ccc([N+](=O)[O-])cc3)CO2)c(OC(C)=O)c1 (stereo not shown) [Compound 27-2, 2-(2',4'-Diacetoxyphenyl)-3-(4-nitrophenylacetoxy)-1,2-epoxypropane] | 4.1 | 23.5 | 2.4 | 2.7 | 3.8 | – |
| Cc1ccc(C2(COC(=O)Cc3ccc(F)cc3)CO2)c(OC(=O)C(C)C)c1 (stereo not shown) [Compound 11-3, 10-(4-Fluorophenylacetoxy)-8,9-epoxythymol isobutyrate] | 3.1 | 10.7 | 0.6 | 1 | 3.7 | – |
| CC(=O)Oc1ccccc1C1(COC(=O)c2ccccc2)CO1 (stereo not shown) [Compound 33-5] | 6.2 | 43.3 | 7 | 9.9 | 8.5 | – |
| C=C(CO)c1ccc(C)cc1OS(=O)(=O)c1ccc(C)cc1 [Compound 35-3, 2-(2-(4'-Toluenesulfoxy)-4-methylphenyl)-prop-2-ene-1-ol] | 14 | 13.1 | 13.9 | 14.6 | 17.9 | – |
| C=C(COS(=O)(=O)c1ccc(OC)cc1)c1ccc(C)cc1OC(C)=O [13'-3, 10-(4-Methoxybenzenesulfoxy)-8,9-methylenethymol acetate] | – | 28.2 | 2.6 | 27.4 | 8.4 | – |
| CC(=O)Oc1cc(C)ccc1C(O)(CO)COC(=O)c1ccc([N+](=O)[O-])cc1 (stereo not shown) [Compound 15-6, 10-(4-Nitrobenzoxy)-8,9-dihydroxythymol acetate] | 40.9 | > 100 | 10.4 | 19.6 | 10.9 | – |
| COc1ccc(CC(=O)OCC(O)(CO)c2ccc(C)cc2OC(C)=O)cc1 (stereo not shown) [Compound 15-4, 10-(4-Methoxyphenylacetoxy)-8,9-dihydroxythymol acetate] | 55.7 | > 100 | 11.2 | 21.3 | 12 | – |
| CC(=O)Oc1ccccc1C1(COC(=O)c2ccc(C)cc2)CO1 (stereo not shown) [Compound 33-6] | 8.7 | 41.4 | 9.3 | 10.6 | 6.9 | – |
| Cc1ccc(C(O)(CO)COC(=O)Cc2ccc(F)cc2)c(OC(=O)C(C)C)c1 (stereo not shown) [Compound 15-8, 10-(4-Fluorophenylacetoxy)-8,9-dihydroxythymol isobutyrate] | 55.9 | > 100 | 12.2 | 24.2 | 10.8 | – |
| CC(=O)Oc1cc(C)ccc1C1(COC(=O)Cc2ccc([N+](=O)[O-])cc2)CO1 (stereo not shown) [Compound 14-3, 10-(4-Nitrophenylacetoxy)-8,9-epoxythymol acetate] | 35.4 | 38.3 | 10.6 | 25.6 | 11 | – |
| CC(=O)Oc1ccc(C2(COC(=O)Cc3ccccc3)CO2)c(OC(C)=O)c1 (stereo not shown) [Compound 27-1, 2-(2',4'-Diacetoxyphenyl)-3-phenylacetoxy-1,2-epoxypropane] | 4.7 | – | 3 | 2.9 | 4.5 | 30.6 |
| Cc1ccc(C2(COC(=O)Cc3ccccc3)CO2)c(OC(=O)C(C)C)c1 (stereo not shown) [Compound 11-1, 10-Phenylacetoxy-8,9-epoxythymol isobutyrate] | 32.5 | – | 9.5 | 7.9 | 10.5 | 35.5 |
| CC(=O)OCC1(c2ccc(C)cc2OC(C)=O)CO1 (stereo not shown) [Compound 14-8, 10-Acetoxy-8,9-epoxythymol acetate] | 45.5 | 51.2 | 13.3 | 12.6 | 14.9 | – |
| CC(=O)Oc1cc(C)ccc1C(O)(CO)COC(=O)c1ccccc1 (stereo not shown) [Compound 15-5, 10-Benzoxy-8,9-dihydroxythymol acetate] | 60.4 | > 100 | 12.7 | 35.1 | 16.6 | – |
| CC(=O)Oc1cc(C)ccc1C(O)(CO)COC(=O)Cc1ccccc1 (stereo not shown) [Compound 15-1, 10-Phenylacetoxy-8,9-dihydroxythymol acetate] | 59.9 | – | 11.6 | 39.9 | 14.8 | > 100 |
| COc1ccc(C(=O)OCC(O)(CO)c2ccc(C)cc2OC(C)=O)cc1 (stereo not shown) [Compound 15-7, 10-(4-Methoxybenzoxy)-8,9-dihydroxythymol acetate] | 63.3 | > 100 | 15 | 38.2 | 14.9 | – |
| Cc1ccc(C2(COC(=O)C(C)C)CO2)c(OC(=O)C(C)C)c1 (stereo not shown) [Compound 11, 10-isobutyryloxy-8,9-epoxythymol isobutyrate] | 37.2 | 40.5 | 10.8 | 8.3 | 11.6 | – |
| CC(=O)Oc1ccccc1C1(COC(=O)Cc2ccccc2)CO1 (stereo not shown) [Compound 33-1] | 9.8 | – | 10.4 | 11.5 | 9.3 | 42.8 |
| C=C(CO)c1ccc(C)cc1OCc1ccc(OC)cc1 [Compound 35-1] | 11.8 | 10.6 | 12.1 | 13.1 | 12.7 | – |
| Cc1ccc(C2(COC(=O)Cc3ccc([N+](=O)[O-])cc3)CO2)c(OC(=O)C(C)C)c1 (stereo not shown) [Compound 11-2, 10-(4-Nitrophenylacetoxy)-8,9-epoxythymol isobutyrate] | 28.4 | 32.1 | 8.7 | 14 | 9.9 | – |
| C=C(CO)c1ccc(C)cc1OCc1ccc([N+](=O)[O-])cc1 [Compound 35, 2-(2-(4'-nitrobenzyloxy)-4-methylphenyl)-prop-2-ene-1-ol] | 5.5 | 4.6 | 8.7 | 0.3 | 9.1 | – |
